Source: patent publication US20020061346A1, “FOOD COMPOSITION” (priority 1998, published 2002)

Test: Post-prandial study: carotenoid levels in triglyceride-rich blood fractions after a tomato-based meal with plant sterols
Type: in vivo, human
Conditions: 20 healthy adult volunteers; single meal with 130 g chunky tomato sauce (5.2 mg lycopene, 2.2 mg beta-carotene) and 2.2 g plant sterols; blood samples over 8 hours; pre-meal level taken as zero
Procedure: A post-prandial study was undertaken, in which 20 healthy, adult, human volunteers, 10 male, 10 female (age 30-65) were provided with an early-morning tomato-based meal, after which at regular intervals and for a period of 8 hours blood samples were taken. In the triglyceride-rich fractions (mainly consisting of chylomicrons that carry the digested fat and fat-soluble components from the intestine to the liver) of those blood samples the levels of lycopene, beta-carotene and also vitamin A were determined (using straight-phase HPLC analysis using a nucleosil cyanyl-bonded column). The levels of vitamin A (measured as retinyl palmitate) and beta-carotene can be taken together as a measure for beta-carotene uptake, as during absorption (or shortly thereafter) beta-carotene is partly converted into vitamin A. The integrated post-prandial response can then be used to estimate the bioavailability of beta-carotene and lycopene from a meal.
The meal consisted of 200 g of cooked macaroni, 130 g of chunky tomato sauce (containing more chunks of tomato flesh than most commercial tomato sauces) made of yellow, orange and super red varieties, 80 g of lean cooked ham (gammon), 20 g of white bread, and 11.6 g of sunflower oil (stripped, i.e. low in antoixidants) and 2.2 g of plansterols. […]

post-prandial response (level in triglyceride-rich blood fractions, FIG. 1)	SMILES
clear post-prandial response	CC1=C(/C=C/C(C)=C/C=C/C(C)=C/C=C/C=C(C)/C=C/C=C(C)/C=C/C2=C(C)CCCC2(C)C)C(C)(C)CCC1 [beta-carotene]
clear post-prandial response	CC(C)=CCC/C(C)=C/C=C/C(C)=C/C=C/C(C)=C/C=C/C=C(C)/C=C/C=C(C)/C=C/C=C(\C)CCC=C(C)C [lycopene]
